Results on 31 compounds are retold here after patent publication US9994594B2, “Inhibitors of arginase and their therapeutic applications” (MARS, INCORPORATED, priority 2010, dated 2018).

The target of one assay is T1, human arginase I (ARG I) (Homo sapiens, UniProt P05089).
T1 sequence (P05089 1-322): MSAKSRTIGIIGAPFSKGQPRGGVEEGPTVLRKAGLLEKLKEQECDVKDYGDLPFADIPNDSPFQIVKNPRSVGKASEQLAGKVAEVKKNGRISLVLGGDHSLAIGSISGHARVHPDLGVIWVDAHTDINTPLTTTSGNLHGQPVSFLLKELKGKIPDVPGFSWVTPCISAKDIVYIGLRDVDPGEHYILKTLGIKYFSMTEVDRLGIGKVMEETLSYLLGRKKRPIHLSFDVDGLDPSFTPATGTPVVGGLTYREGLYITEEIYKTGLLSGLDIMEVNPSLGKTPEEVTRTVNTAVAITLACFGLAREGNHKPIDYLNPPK
Put plainly: Inhibition of arginase I, spectrophotometric urea assay at 530 nm. The assay is classed as biochemical. The following applies: Formula I compounds, Table 2; read-out: Potency (ARG I). The procedure, abridged: (§1)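 IC50 was derived by regression of OD530 normalized to uninhibited-enzyme controls against log concentration. Urea from 60-min, 37 °C turnover of L-arginine with manganese sulfate was detected after acid o-phthaldialdehyde/primaquine quench and 10 min colour development. Arginase I and II came from 100 ng/ml stocks in pH 7.4 phosphate with ovalbumin.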

The target in the next assay is T2, arginase II (ARG II) (Homo sapiens, UniProt P78540).
T2 sequence (P78540 23-354): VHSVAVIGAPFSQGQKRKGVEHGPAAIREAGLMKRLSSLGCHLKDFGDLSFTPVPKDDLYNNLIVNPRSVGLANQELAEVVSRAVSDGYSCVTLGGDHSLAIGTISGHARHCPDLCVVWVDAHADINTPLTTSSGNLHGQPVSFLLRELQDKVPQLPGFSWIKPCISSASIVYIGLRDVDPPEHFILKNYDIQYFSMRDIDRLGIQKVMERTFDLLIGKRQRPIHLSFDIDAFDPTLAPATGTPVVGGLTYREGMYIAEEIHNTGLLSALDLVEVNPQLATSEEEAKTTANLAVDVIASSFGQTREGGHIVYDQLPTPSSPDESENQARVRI
Description: Inhibition of arginase II, spectrophotometric urea assay at 530 nm. Format: biochemical. The following applies: Formula I compounds, Table 2; read-out: Potency (ARG II). Summed up:
as §1

The structures appear in SMILES notation. Structures can show the parent of a compound that is named as a salt.

With `NC(CCCCB(O)O)(CCOc1ccc(Cl)cc1Cl)C(=O)O` (centres unmarked) [compound 94, 2-Amino-6-borono-2-[2-(2,4-dichlorophenoxy)-ethyl]-hexanoic acid hydrochloride], the IC50 at human arginase I (ARG I) and on arginase II (ARG II) was over 5 µM each time.
In the case of `NC(CCCCB(O)O)(CCOc1cccc(C(F)(F)F)c1)C(=O)O` (centres unmarked) [compound 95, 2-Amino-6-borono-2-[2-(3-trifluoromethylphenoxy)-ethyl]-hexanoic acid hydrochloride], the IC50 on human arginase I (ARG I) and on arginase II (ARG II) was 2 to 5 µM each time.
Take `NC(CCCCB(O)O)(CCCOc1ccc(Cl)cc1)C(=O)O` (centres unmarked) [compound 96, 2-Amino-6-borono-2-[3-(4-chlorophenoxy)-propyl]-hexanoic acid hydrochloride]: the IC50 on human arginase I (ARG I) and at arginase II (ARG II) was 1 to 2 µM each time.
In the case of `CC(N)(CCCCB(O)O)C(=O)O` (centres unmarked) [compound 97, 2-Amino-6-borono-2-methylhexanoic acid hydrochloride], the IC50 on human arginase I (ARG I) was 2 to 5 µM; on arginase II (ARG II), over 5 µM.
Turning to `NC(CCCCB(O)O)(Cc1cnc[nH]1)C(=O)O` (centres unmarked) [compound 102, 2-((1H-imidazol-5-yl)methyl)-2-amino-6-boronohexanoic acid dihydrochloride], the IC50 at human arginase I (ARG I) and at arginase II (ARG II) was 2 to 5 µM throughout.
Turning to `NC(CCCCB(O)O)(CC(=O)O)C(=O)O` (centres unmarked) [compound 106, 2-amino-2-(4-boronobutyl)succinic acid hydrochloride], the IC50 at human arginase I (ARG I) and at arginase II (ARG II) was over 5 µM throughout.
In the case of `CC(C)n1cncc1CC(N)(CCCCB(O)O)C(=O)O` (centres unmarked) [compound 107, 2-amino-6-borono-2-((1-isopropyl-1H-imidazol-5-yl)methyl)hexanoic acid dihydrochloride], the IC50 on human arginase I (ARG I) and on arginase II (ARG II) was over 5 µM each time.
Consider `CCC(O)C(N)(CCCCB(O)O)C(=O)O` (centres unmarked) [compound 108, 2-amino-6-borono-2-(1-hydroxypropyl)hexanoic acid hydrochloride], for which the results for the IC50 on human arginase I (ARG I) and at arginase II (ARG II) were 1 to 2 µM and 2 to 5 µM, respectively.
For the compound `NC(CCCCB(O)O)(C(=O)O)C(O)C1CCNCC1` (centres unmarked) [compound 109, 2-amino-6-borono-2-(hydroxy(piperidin-4-yl)methyl)hexanoic acid dihydrochloride], the IC50 at human arginase I (ARG I) is 2 to 5 µM; on arginase II (ARG II) it was over 5 µM.
The matching figures for `NC(CCCCB(O)O)(C(=O)O)C(O)C1CCCNC1` (centres unmarked) [compound 110, 2-amino-6-borono-2-(hydroxy(piperidin-3-yl)methyl)hexanoic acid dihydrochloride]: 1 to 2 µM and 2 to 5 µM.
Taken in the same sequence, the figures for `NC(CCCCB(O)O)(C(=O)O)C(O)CCC(F)(F)F` (centres unmarked) [compound 111, 2-amino-2-(4-boronobutyl)-6,6,6-trifluoro-3-hydroxyhexanoic acid hydrochloride] were 2 to 5 µM and 2 to 5 µM.
Consider `NC(CCCCB(O)O)(C(=O)O)C(O)c1cccnc1` (centres unmarked) [compound 112, 2-amino-6-borono-2-(hydroxy(pyridin-3-yl)methyl)hexanoic acid dihydrochloride], for which the IC50 at human arginase I (ARG I) and at arginase II (ARG II) was 2 to 5 µM each time.
For the compound `NC(CCCCB(O)O)(C(=O)O)C(O)C1CNC1` (centres unmarked) [compound 113, 2-amino-2-(azetidin-3-yl(hydroxy)methyl)-6-boronohexanoic acid dihydrochloride], the IC50 on human arginase I (ARG I) is 0.0001 to 0.25 µM; at arginase II (ARG II), 0.251 to 1 µM.
As to `NC(CCCCB(O)O)C(=O)c1ccccc1` (centres unmarked) [compound 114, 5-amino-6-oxo-6-phenylhexylboronic acid hydrochloride], the IC50 on human arginase I (ARG I) and at arginase II (ARG II) was over 5 µM in each case.
As to `NC(CCCCB(O)O)(CCc1ccccn1)C(=O)O` (centres unmarked) [compound 116, 2-amino-6-borono-2-(2-(pyridin-2-yl)ethyl)hexanoic acid dihydrochloride], the IC50 on human arginase I (ARG I) and at arginase II (ARG II) was 2 to 5 µM each time.
For the compound `NC(CCCCB(O)O)(CC1CN(Cc2ccc(Cl)c(Cl)c2)C1)C(=O)O` (centres unmarked) [compound 117, 2-amino-6-borono-2-((1-(3,4-dichlorobenzyl)azetidin-3-yl)methyl)hexanoic acid dihydrochloride], the IC50 lay within 0.251 to 1 µM at human arginase I (ARG I) and 2 to 5 µM at arginase II (ARG II).
With `NC(CCCCB(O)O)(CC1CN(CCc2ccc(Cl)cc2Cl)C1)C(=O)O` (centres unmarked) [compound 118, 2-amino-6-borono-2-((1-(2,4-dichlorophenethyl)azetidin-3-yl)methyl)hexanoic acid dihydrochloride], the IC50 at human arginase I (ARG I) and at arginase II (ARG II) was 0.251 to 1 µM throughout.
Consider `NC(CCCCB(O)O)(CCNC(=S)Nc1ccc(Cl)c(Cl)c1)C(=O)O` (centres unmarked) [compound 119, 2-amino-6-borono-2-(2-(3-(3,4-dichlorophenyl)thioureido)ethyl)hexanoic acid hydrochloride], for which the IC50 lay within 0.251 to 1 µM on human arginase I (ARG I) and 1 to 2 µM on arginase II (ARG II).
The matching figures for `CC(C)C(=O)NCCC(N)(CCCCB(O)O)C(=O)O` (centres unmarked) [compound 120, 2-amino-6-borono-2-(2-isobutyramidoethyl)hexanoic acid hydrochloride]: 1 to 2 µM and 2 to 5 µM.
Taken in the same sequence, the figures for `NC(CCCCB(O)O)(CCN1CCC(c2ccc(Cl)cc2)CC1)C(=O)O` (centres unmarked) [compound 121, 2-amino-6-borono-2-(2-(4-(4-chlorophenyl)piperidin-1-yl)ethyl)hexanoic acid dihydrochloride] were 0.251 to 1 µM and 0.251 to 1 µM.
Taken in the same sequence, the figures for `NC(CCCCB(O)O)(CCN1CCC(Cc2ccc(Cl)cc2)CC1)C(=O)O` (centres unmarked) [compound 122, 2-amino-6-borono-2-(2-(4-(4-chlorobenzyl)piperidin-1-yl)ethyl)hexanoic acid dihydrochloride] were 0.251 to 1 µM and 0.251 to 1 µM.
On to `NC(CCCCB(O)O)(CC1CNC1)C(=O)O` (centres unmarked) [compound 123, 2-amino-2-(azetidin-3-ylmethyl)-6-boronohexanoic acid dihydrochloride], for which the IC50 is 2 to 5 µM on human arginase I (ARG I) and over 5 µM on arginase II (ARG II).
The matching figures for `CC(CC(N)(CCCCB(O)O)C(=O)O)N1CCC(Cc2ccccc2)CC1` (centres unmarked) [compound 124, 2-amino-2-(2-(4-benzylpiperidin-1-yl)propyl)-6-boronohexanoic acid dihydrochloride]: 0.251 to 1 µM and 2 to 5 µM.
Turning to `NC(CCCCB(O)O)(CCN1CCC(Cc2ccccc2)CC1)C(=O)O` (centres unmarked) [compound 125, 2-amino-2-(2-(4-benzylpiperidin-1-yl)ethyl)-6-boronohexanoic acid dihydrochloride], the IC50 at human arginase I (ARG I) and at arginase II (ARG II) was 0.251 to 1 µM in each case.
Take `NC(CCCCB(O)O)(CCN1CCC(Cc2ccc(C(F)(F)F)cc2)CC1)C(=O)O` (centres unmarked) [compound 126, 2-amino-6-borono-2-(2-(4-(4-(trifluoromethyl)benzyl)piperidine-1-yl)ethyl)hexanoic acid dihydrochloride]: the IC50 at human arginase I (ARG I) and on arginase II (ARG II) was 0.251 to 1 µM in each case.
Turning to `NC(CCCCB(O)O)(CCN1CCC(Cc2ccc(F)cc2)CC1)C(=O)O` (centres unmarked) [compound 127, 2-amino-6-borono-2-(2-(4-(4-fluorobenzyl)piperidin-1-yl)ethyl)hexanoic acid dihydrochloride], the IC50 on human arginase I (ARG I) and on arginase II (ARG II) was 0.251 to 1 µM throughout.
As for `CC1(C)CCN(CCC(N)(CCCCB(O)O)C(=O)O)CC1` (centres unmarked) [compound 128, 2-amino-6-borono-2-(2-(4,4-dimethylpiperidin-1-yl)ethyl)hexanoic acid dihydrochloride], the IC50 was 0.251 to 1 µM on human arginase I (ARG I) and 1 to 2 µM at arginase II (ARG II).
As to `CCCC1CCN(CCC(N)(CCCCB(O)O)C(=O)O)CC1` (centres unmarked) [compound 129, 2-amino-6-borono-2-(2-(4-propylpiperidin-1-yl)ethyl)hexanoic acid dihydrochloride], the IC50 on human arginase I (ARG I) lay in the range of 0.251 to 1 µM; on arginase II (ARG II), 1 to 2 µM.
Take `CCN1Cc2ccccc2CC1CCC(N)(CCCCB(O)O)C(=O)O` (centres unmarked) [compound 130, 2-amino-6-borono-2-(2-(2-ethyl-1,2,3,4-tetrahydroisoquinolin-3-yl)ethyl)hexanoic acid dihydrochloride]: the IC50 on human arginase I (ARG I) lay in the range of 0.0001 to 0.25 µM; at arginase II (ARG II) it was 0.251 to 1 µM.
For `NC(CCCCB(O)O)(CCC1Cc2ccccc2CN1Cc1ccc(Cl)cc1)C(=O)O` (centres unmarked) [compound 132, 2-amino-6-borono-2-(2-(2-(4-chlorobenzyl)-1,2,3,4-tetrahydroisoquinolin-3-yl)ethyl)hexanoic acid dihydrochloride], the IC50 at human arginase I (ARG I) lay in the range of 0.0001 to 0.25 µM; at arginase II (ARG II) it was 0.251 to 1 µM.
As to `CC(C)CCN1Cc2ccccc2CC1CCC(N)(CCCCB(O)O)C(=O)O` (centres unmarked) [compound 133, 2-amino-6-borono-2-(2-(2-isopentyl-1,2,3,4-tetrahydroisoquinolin-3-yl)ethyl)hexanoic acid dihydrochloride], the IC50 on human arginase I (ARG I) and at arginase II (ARG II) was 0.0001 to 0.25 µM in each case.
